This is an account of results in patent publication US10987349B2, “Antitumor agent and bromodomain inhibitor” (FUJIFILM Corporation, priority 2016, dated 2021).

The structures appear in SMILES notation.

Test [1] deals with MOLT-3. Kind of test: Cell growth test (Cell Titer Blue) MOLT-3. The test is classed as cell-based. To be noted: Homo sapiens, 72 h, MOLT-3, Acute lymphoblastic leukemia, 3 days. The procedure:
(§1) Moreover, the compound of Example 14 was subjected to a cell growth test using various types of cell lines.
(§2) All cell lines other than the below-noticed cells were each seeded in a well plate, in which an RPMI-1640 medium supplemented with penicillin/streptomycin and FBS with a final concentration of 10% was placed. The human prostate cancer cell line VCaP (ATCC) was seeded in a well plate, in which DMEM medium supplemented with penicillin/streptomycin and FBS with a final concentration of 10% was placed. […] Thereafter, using Enspire Multimode Plate Reader (PerkinElmer), the amount of fluorescence at an excitation wavelength of 531 nm and a fluorescence wavelength of 615 nm was measured. Since the amount of fluorescence is in proportion to the concentration of a florescent product resorufin that is converted from resazurin as a redox dye by living cells, the amount of fluorescence was used as an indicator of the number of living cells. The growth inhibition percentage of the test compound in each concentration was calculated according to the following equation. Growth inhibition percentage (%)=(amount of fluorescence in test compound−added well)/(amount of fluorescence in DMSO−added well)×100 […]

Test [2] concerns PANC-1. Kind of test: Cell growth test (Cell Titer Blue) PANC-1. In kind it is cell-based. The conditions noted are these: Homo sapiens, 72 h, PANC-1, Pancreatic cancer, 3 days. The procedure:
as §1, §2

The test system of test [3] is SU-DHL-4. Kind of test: Cell growth test (Cell Titer Blue) SU-DHL-4. To be noted: Homo sapiens, 72 h, SU-DHL-4, Lymphoma, 3 days. The test is classed as cell-based. The procedure: as §1, §2
Test [4] concerns human prostate cancer cell line VCaP. Kind of test: Cell growth test (Cell Titer Blue) VCaP. In kind it is cell-based. To be noted: 72 h, 3 days. How it is done: as §1, §2
The subject of test [5] is K-562. Kind of test: Cell growth test (Cell Titer Blue) K-562. To be noted: Homo sapiens, K562, 72 h, K-562, Chronic myeloid leukemia, 3 days. In kind it is cell-based. How it is done: as §1, §2
The test system of test [6] is T-24. Kind of test: Cell growth test (Cell Titer Blue) T-24. The conditions noted are these: Homo sapiens, 72 h, T-24, Bladder cancer, 3 days. In kind it is cell-based. The procedure: as §1, §2
For test [7], the system named is MV4-11 subcutaneously transplanted tumor. Briefly: Medicinal effect test, MV4-11-subcutaneously-transplanted cancer-bearing mouse models, intravenous administration. The conditions noted are these: intravenously, once per day, 25 days, BALB/c nu/nu mice. In kind it is in vivo. How it is done:
T/C (%) was calculated from the average tumor volume of each group according to the following equation, and medicinal effects were then evaluated. T/C(%)=[1−(average tumor volume of drug administration group)/(average tumor volume of solvent administration group)]×100%
Moreover, using the above-described mouse models, medicinal effects obtained upon intravenous administration were evaluated.
The human acute myeloid leukemia cell line MV4-11 (ATCC) was suspended in a mixture of RPMI-1640 […] and Matrigel (Corning), and the obtained mixture was then subcutaneously transplanted into 6-week-old female BALB/c nu/nu mice (CLEA Japan, Inc.). After confirming that the average tumor volume exceeded 200 mm^3, a test compound was dissolved in a solvent (a normal saline containing 1 equivalent of hydrochloric acid), and the obtained solution was then intravenously administered to the mice at a daily dose of 10 to 30 mg/kg, once per day, for 25 days. As a negative control, a solvent administration group involving administration of a normal saline was established. The tumor diameter was measured on a daily basis, and the tumor volume was calculated. In the same manner as described above, the tumor volume and T/C (%) were calculated, and medicinal effects were then evaluated.

Test [8] concerns IL-7R gene. Kind of test: Expression of IL-7R gene in MV4-11 cells, RT-PCR. In kind it is cell-based, human. The conditions noted are these: MV4-11 cells, 10, 30 or 100 nmol/L, 6 hours. The procedure:
A fluctuation in the expression of c-Myc, IL-7R and HEXIM1 genes in MV4-11 (ATCC) cells treated with the test compound was analyzed according to a reverse transcription polymerase chain reaction (RT-PCR) method.
MV4-11 cells were cultured for 6 hours in an RPMI-1640 medium supplemented with penicillin/streptomycin and FBS with a final concentration of 10%, to which the compound of Example 14 was added to a concentration of 10 nmol/L, 30 nmol/L or 100 nmol/L. On the other hand, a non-treatment group (Non-treatment) was established by culturing MV4-11 cells for 6 hours in the above-described medium, to which the compound of Example 14 was not added. Using Rneasy (registered trademark) (Qiagen), RNA was extracted from the above-described MV4-11 cells in accordance with the instruction manual included with the aforementioned device. […] Thereafter, a PCR reaction was carried out for 40 cycles (a cycle consisting of 95° C.-5 seconds and 60° C.-30 seconds.) Subsequently, the obtained reaction product was measured.
As a housekeeping gene, the expression level of GAPDH (Glyceraldehyde 3-phosphate dehydrogenase) was also evaluated. The ratio of the expression level of the mRNA of each of c-Myc, IL-7R and HEXIM1 to the expression level of GAPDH was calculated, and the expression level of each gene (relative expression level) was then quantified. […]

Test [9] relates to HCT-15. Kind of test: Cell growth test (Cell Titer Blue) HCT-15. In kind it is cell-based. The conditions noted are these: Homo sapiens, 72 h, HCT-15, Colon cancer, 3 days. How it is done: as §1, §2
Test [10] concerns Jurkat. Briefly: Cell growth test (Cell Titer Blue) Jurkat. The test is classed as cell-based. The conditions noted are these: Homo sapiens, 72 h, Acute lymphoblastic leukemia, 3 days. The procedure: as §1, §2
Test [11] relates to Daudi. Kind of test: Cell growth test (Cell Titer Blue) Daudi. The test is classed as cell-based. To be noted: Homo sapiens, 72 h, Lymphoma, 3 days. The procedure: as §1, §2

Turning to `CCn1c(=O)cc(C2CCN(C)CC2)c2cc(C(=O)N(C)c3ccc(C)cc3)ccc21` [Example 14, 1-Ethyl-N-methyl-N-(4-methylphenyl)-4-(1-methylpiperidin-4-yl)-2-oxo-1,2-dihydroquinoline-6-carboxamide], the GI50 in [1] came out at 317 nM; in test [2], 2980 nM; in test [3], 49 nM; in test [4], 361 nM; in [5] it was 17 nM; in test [6] it was 3040 nM. The GI50 was determined as 505 nM in test [9], 129 nM in [10] and 165 nM in test [11]. Besides, the “T/C (%)” value was found to be 66% in test [7] (10 mg/kg) and 78% in test [7] (30 mg/kg). Moreover, the “mRNA expression of IL-7R (GAPDH correction)” value in [8] was “decreased in a compound concentration-dependent manner”.
